According to ChEMBL document CHEMBL1152277, “Lead optimization of 4-acetylamino-2-(3,5-dimethylpyrazol-1-yl)-6-pyridylpyrimidines as A2A adenosine receptor antagonists for the treatment of Parkinson's disease” (J Med Chem, 2008):
In brackets after ≈: the same amount, converted by molar mass. Activity calls are given as the source filed them. No cut-off for these calls is given here.

Key:
[1] = target: Cytochrome P450 3A4 (Homo sapiens, UniProt P08684)
Description: Inhibition of CYP3A4 in human liver microsomes by LC-MS/MS analysis

[2] = species on record: Homo sapiens; experiment: Selectivity ratio of Ki for human adenosine A1 receptor to Ki for human adenosine A2A receptor
[3] = target: Adenosine receptor A2a (Rattus norvegicus, UniProt P30543); experiment: Displacement of [3H][…] from rat adenosine A2A receptor expressed in CHO cells; assay type: cell-based
Sequence of Adenosine receptor A2a (Rattus norvegicus, UniProt P30543) (P30543 whole entry): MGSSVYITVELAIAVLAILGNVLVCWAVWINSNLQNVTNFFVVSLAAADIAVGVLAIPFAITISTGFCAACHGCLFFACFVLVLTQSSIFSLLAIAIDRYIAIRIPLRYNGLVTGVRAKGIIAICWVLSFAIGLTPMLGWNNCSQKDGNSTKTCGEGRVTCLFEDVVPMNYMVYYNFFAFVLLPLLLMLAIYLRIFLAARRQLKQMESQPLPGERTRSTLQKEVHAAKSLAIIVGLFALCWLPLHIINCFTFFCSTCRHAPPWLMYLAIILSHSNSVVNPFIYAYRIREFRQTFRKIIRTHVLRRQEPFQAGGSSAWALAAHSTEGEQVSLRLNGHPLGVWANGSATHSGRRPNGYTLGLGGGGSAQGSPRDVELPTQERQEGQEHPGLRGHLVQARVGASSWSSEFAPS

[4] = Metabolic stability in rat liver microsomes assessed as intrinsic clearance by LC-MS/MS analysis; assay type: ADME, Microsome
[5] = Aqueous solubility in phosphate-buffered saline at pH 7.4; assay type: physicochemical
[6] = target: T1, Adenosine receptor A2a (Homo sapiens, UniProt P29274); experiment: Displacement of [3H][…] from human adenosine A2A receptor expressed in HEK293 cells; assay type: cell-based
T1 sequence (P29274 whole entry): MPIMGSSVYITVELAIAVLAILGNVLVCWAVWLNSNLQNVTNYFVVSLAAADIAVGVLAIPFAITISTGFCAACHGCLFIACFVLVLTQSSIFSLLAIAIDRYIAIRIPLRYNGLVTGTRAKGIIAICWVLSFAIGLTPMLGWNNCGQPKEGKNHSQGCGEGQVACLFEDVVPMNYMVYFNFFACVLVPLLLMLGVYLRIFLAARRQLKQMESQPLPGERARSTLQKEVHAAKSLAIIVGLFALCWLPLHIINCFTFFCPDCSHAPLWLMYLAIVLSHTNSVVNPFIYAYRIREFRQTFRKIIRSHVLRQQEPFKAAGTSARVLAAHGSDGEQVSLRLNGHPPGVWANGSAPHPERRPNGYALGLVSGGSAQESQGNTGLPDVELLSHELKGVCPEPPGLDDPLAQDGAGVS

[7] = target: T2, Adenosine receptor A1 (Homo sapiens, UniProt P30542); experiment: Displacement of [3H]DPCPX from human adenosine A1 receptor expressed in HEK293 cells; assay type: cell-based
T2 sequence (P30542 whole entry): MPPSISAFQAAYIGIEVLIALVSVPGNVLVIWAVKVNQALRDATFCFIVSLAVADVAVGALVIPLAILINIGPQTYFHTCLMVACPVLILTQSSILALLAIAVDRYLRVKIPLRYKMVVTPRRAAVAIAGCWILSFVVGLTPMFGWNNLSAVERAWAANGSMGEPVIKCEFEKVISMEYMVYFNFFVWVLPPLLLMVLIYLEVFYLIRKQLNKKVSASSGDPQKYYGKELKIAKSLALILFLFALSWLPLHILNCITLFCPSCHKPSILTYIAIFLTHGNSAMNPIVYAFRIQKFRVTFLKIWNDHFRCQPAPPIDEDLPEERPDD

[8] = Metabolic stability in human liver microsomes assessed as intrinsic clearance by LC-MS/MS analysis; assay type: ADME, Microsome
[9] = Drug concentration in rat brain at 10 mg/kg, po after 2 hrs; assay type: ADME, organism-based; design: dose 10 mg/kg, route oral; details: read-out: Drug uptake
[10] = Lipophilicity, log D at pH 7.4; assay type: physicochemical; details: buffer
[11] = Plasma concentration in rat at 10 mg/kg, po after 2 hrs; assay type: ADME, organism-based; design: dose 10 mg/kg, route oral
[12] = target: T1, Adenosine receptor A2a; experiment: Antagonist activity at human adenosine A2A receptor expressed in CHO cells assessed as inhibition of CGS-21680-induced cAMP production; assay type: functional, cell-based
[13] = Dissociation constant, pKa of the compound; assay type: physicochemical
[14] = system: Rattus norvegicus; experiment: Inhibition of haloperidol-induced catalepsy in rat at 30 mg/kg, po after 2 hrs; assay type: functional
[15] = Permeability from apical to basolateral side of the human Caco-2 membrane by LC-MS/MS analysis; assay type: ADME, cell-based; details: read-out: permeability
[16] = system: Rattus norvegicus; experiment: Inhibition of haloperidol-induced catalepsy in rat at 10 mg/kg, po after 2 hrs; assay type: functional; design: scale not given: the % may be the effect or the level left
[17] = species on record: Rattus norvegicus; experiment: Inhibition of haloperidol-induced catalepsy in rat assessed as minimal effective dose; assay type: functional; details: read-out: MED

Sequence of Cytochrome P450 3A4 (P08684 whole entry): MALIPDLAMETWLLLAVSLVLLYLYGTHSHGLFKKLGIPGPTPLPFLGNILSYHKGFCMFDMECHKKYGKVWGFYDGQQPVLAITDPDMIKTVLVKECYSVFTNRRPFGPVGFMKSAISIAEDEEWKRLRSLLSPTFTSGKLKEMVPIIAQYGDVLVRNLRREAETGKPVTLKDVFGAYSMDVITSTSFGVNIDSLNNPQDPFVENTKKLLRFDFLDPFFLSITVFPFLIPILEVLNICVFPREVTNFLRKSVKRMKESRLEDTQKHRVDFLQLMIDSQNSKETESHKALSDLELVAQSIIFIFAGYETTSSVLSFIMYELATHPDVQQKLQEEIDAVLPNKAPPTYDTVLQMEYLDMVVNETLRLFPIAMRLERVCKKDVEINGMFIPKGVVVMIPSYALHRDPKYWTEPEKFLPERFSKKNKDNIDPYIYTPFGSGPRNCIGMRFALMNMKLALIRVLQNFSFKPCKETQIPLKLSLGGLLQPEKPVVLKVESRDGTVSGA

Row | Compound | IC50 [1] | Ratio Ki [2] | Ki [3] | CLint scaled [4] | solubility [5] | Ki [6] | Ki [7] | CLint scaled [8] | concentration at 2 h [9] | logD [10] | concentration at 2 h [11] | IC50 [12] | pKa [13] | Activity [14] | Papp A→B [15] | Activity [16] | minimal effective dose [17]
1 | COC1CN(c2cccc(-c3cc(NC(C)=O)nc(-n4nc(C)cc4C)n3)n2)C1 | 11000 nM | 72 | 1.5 nM | 160 mL/min/kg | 30 µg/mL (≈ 76.2 µM) | 0.47 nM | 34 nM | 25 mL/min/kg | 560 ng/g | 3.6 | 150 ng/mL | 18 nM | 3.4 | – | – | – | –
2 | CC(=O)Nc1cc(-c2cncc(O)c2)nc(-n2nc(C)cc2C)n1 | 18000 nM | 67 | 32 nM | 140 mL/min/kg | – | 2.9 nM | 195 nM | 41 mL/min/kg | 154 ng/g | 2.4 | 264 ng/mL | 64 nM | – | inactive | – | – | –
3 | COc1cccc(-c2cc(NC(C)=O)nc(-n3nc(C)cc3C)n2)c1 | 740 nM | 71 | – | – | – | 0.92 nM | 65 nM | – | – | – | – | – | – | – | – | – | –
4 | COc1cccc(-c2cc(NC(C)=O)nc(-n3nc(C)cc3C)n2)c1F | > 20000 nM | 187 | 12 nM | 360 mL/min/kg | 170 µg/mL (≈ 478 µM) | 0.6 nM | 110 nM | 36 mL/min/kg | – | 2 | – | 32 nM | – | inactive | 26 ×10⁻⁶ cm/s | – | –
5 | CC(=O)Nc1cc(-c2cccc(N3CCCCC3)n2)nc(-n2nc(C)cc2C)n1 | – | 54 | – | – | – | 0.56 nM | 31 nM | – | – | – | – | – | – | – | – | – | –
6 | COc1cc(OC)cc(-c2cc(NC(C)=O)nc(-n3nc(C)cc3C)n2)c1 | 380 nM | 116 | 3 nM | 110 mL/min/kg | < 20 µg/mL | 0.19 nM | 22 nM | 9.3 mL/min/kg | 1150 ng/g | 3.2 | 1330 ng/mL | 17 nM | – | – | 2.4 ×10⁻⁶ cm/s | 49% | 1 mg/kg
7 | CC(=O)Nc1cc(-c2cccc(N)n2)nc(-n2nc(C)cc2C)n1 | > 20000 nM | 57 | – | – | – | 7.9 nM | 440 nM | – | – | – | – | – | – | – | – | – | –
8 | CCC(=O)Nc1cc(-c2cncc(OC)c2)nc(-n2nc(C)cc2C)n1 | 17000 nM | 39 | 21 nM | 110 mL/min/kg | – | 1.8 nM | 70 nM | 29 mL/min/kg | 1380 ng/g | 2.8 | 860 ng/mL | 31 nM | 3.6 | – | – | 69% | 1 mg/kg
9 | CC(=O)Nc1cc(-c2cccc(N3CCCOCC3)n2)nc(-n2nc(C)cc2C)n1 | > 20000 nM | 121 | – | 1000 mL/min/kg | – | 2.3 nM | 280 nM | 94 mL/min/kg | – | – | – | – | – | – | – | – | –
10 | COC(=O)Nc1cc(-c2cncc(OC)c2)nc(-n2nc(C)cc2C)n1 | 16000 nM | 106 | 68 nM | 93 mL/min/kg | – | 7.4 nM | 780 nM | 16 mL/min/kg | – | – | – | 167 nM | – | – | – | 46% | 10 mg/kg
11 | COc1cncc(-c2cc(NC(=O)CN3CCOCC3)nc(-n3nc(C)cc3C)n2)c1 | > 20000 nM | 235 | 30 nM | 150 mL/min/kg | – | 4 nM | 940 nM | 3 mL/min/kg | – | 2.4 | – | 49 nM | 5.3 | inactive | – | – | –
12 | CCOC(=O)Nc1cc(-c2cncc(OC)c2)nc(-n2nc(C)cc2C)n1 | 20000 nM | 79 | 82 nM | 59 mL/min/kg | – | 7.8 nM | 620 nM | 38 mL/min/kg | – | – | – | 196 nM | – | inactive | – | – | –
13 | COCCN(C)c1cccc(-c2cc(NC(C)=O)nc(-n3nc(C)cc3C)n2)n1 | 2500 nM | 76 | 14 nM | 490 mL/min/kg | – | 0.72 nM | 55 nM | 52 mL/min/kg | 870 ng/g | – | 220 ng/mL | 70 nM | – | – | – | 70% | 10 mg/kg
14 | CC(=O)Nc1cc(-c2ccnc(N3CCOCC3)c2)nc(-n2nc(C)cc2C)n1 | – | 48 | – | – | – | 12 nM | 580 nM | – | – | – | – | – | – | – | – | – | –
15 | COCCOc1cncc(-c2cc(NC(C)=O)nc(-n3nc(C)cc3C)n2)c1 | – | – | – | 43 mL/min/kg | – | 3.1 nM | 110 nM | 3 mL/min/kg | – | – | – | – | – | – | – | – | –
16 | CC(=O)Nc1cc(-c2cccc(N3CCCC3)n2)nc(-n2nc(C)cc2C)n1 | > 20000 nM | 28 | – | – | – | 0.26 nM | 7.2 nM | – | – | – | – | – | – | – | – | – | –
17 | CC(=O)Nc1cc(-c2cccnc2)nc(-n2nc(C)cc2C)n1 | > 20000 nM | 18 | – | – | – | 120 nM | 2100 nM | – | – | – | – | – | – | – | – | – | –
18 | CC(=O)Nc1cc(-c2cccc(N(C)C)n2)nc(-n2nc(C)cc2C)n1 | 25000 nM | 133 | 20 nM | 1600 mL/min/kg | – | 0.61 nM | 81 nM | 54 mL/min/kg | 180 ng/g | – | 290 ng/mL | 156 nM | – | – | – | – | 30 mg/kg
19 | CC(=O)Nc1cc(-c2cc(N3CCOCC3)ccn2)nc(-n2nc(C)cc2C)n1 | – | 53 | – | – | – | 87 nM | 4600 nM | – | – | – | – | – | – | – | – | – | –
20 | CC(=O)Nc1cc(-c2cncc(N3CCOCC3)c2)nc(-n2nc(C)cc2C)n1 | > 20000 nM | 74 | – | 150 mL/min/kg | – | 3 nM | 220 nM | 12 mL/min/kg | – | – | – | – | – | – | – | – | –
21 | CC(=O)Nc1cc(-c2ccccc2)nc(-n2nc(C)cc2C)n1 | 43000 nM | 3.3 | – | – | – | – | 290 nM | – | – | – | – | – | – | – | – | – | –
22 | CC(=O)Nc1cc(-c2ccncc2)nc(-n2nc(C)cc2C)n1 | 8500 nM | 21 | – | – | – | 40 nM | 820 nM | – | – | – | – | – | – | – | – | – | –
